The values that follow come from article PMC8253220, “Molecular design, synthesis and in vitro biological evaluation of thienopyrimidine–hydroxamic acids as chimeric kinase HDAC inhibitors: a challenging approach to combat cancer” (Journal of Enzyme Inhibition and Medicinal Chemistry, 2021).

Where two headings read alike, the source gives them in different places.

The subject of assay [1] is HDAC. As to conditions: Figure 2; cited from earlier work.
In assay [2] the target is EGFR (Homo sapiens, UniProt P00533). Particulars: cited from earlier work.
EGFR, sequence (P00533 25-1210): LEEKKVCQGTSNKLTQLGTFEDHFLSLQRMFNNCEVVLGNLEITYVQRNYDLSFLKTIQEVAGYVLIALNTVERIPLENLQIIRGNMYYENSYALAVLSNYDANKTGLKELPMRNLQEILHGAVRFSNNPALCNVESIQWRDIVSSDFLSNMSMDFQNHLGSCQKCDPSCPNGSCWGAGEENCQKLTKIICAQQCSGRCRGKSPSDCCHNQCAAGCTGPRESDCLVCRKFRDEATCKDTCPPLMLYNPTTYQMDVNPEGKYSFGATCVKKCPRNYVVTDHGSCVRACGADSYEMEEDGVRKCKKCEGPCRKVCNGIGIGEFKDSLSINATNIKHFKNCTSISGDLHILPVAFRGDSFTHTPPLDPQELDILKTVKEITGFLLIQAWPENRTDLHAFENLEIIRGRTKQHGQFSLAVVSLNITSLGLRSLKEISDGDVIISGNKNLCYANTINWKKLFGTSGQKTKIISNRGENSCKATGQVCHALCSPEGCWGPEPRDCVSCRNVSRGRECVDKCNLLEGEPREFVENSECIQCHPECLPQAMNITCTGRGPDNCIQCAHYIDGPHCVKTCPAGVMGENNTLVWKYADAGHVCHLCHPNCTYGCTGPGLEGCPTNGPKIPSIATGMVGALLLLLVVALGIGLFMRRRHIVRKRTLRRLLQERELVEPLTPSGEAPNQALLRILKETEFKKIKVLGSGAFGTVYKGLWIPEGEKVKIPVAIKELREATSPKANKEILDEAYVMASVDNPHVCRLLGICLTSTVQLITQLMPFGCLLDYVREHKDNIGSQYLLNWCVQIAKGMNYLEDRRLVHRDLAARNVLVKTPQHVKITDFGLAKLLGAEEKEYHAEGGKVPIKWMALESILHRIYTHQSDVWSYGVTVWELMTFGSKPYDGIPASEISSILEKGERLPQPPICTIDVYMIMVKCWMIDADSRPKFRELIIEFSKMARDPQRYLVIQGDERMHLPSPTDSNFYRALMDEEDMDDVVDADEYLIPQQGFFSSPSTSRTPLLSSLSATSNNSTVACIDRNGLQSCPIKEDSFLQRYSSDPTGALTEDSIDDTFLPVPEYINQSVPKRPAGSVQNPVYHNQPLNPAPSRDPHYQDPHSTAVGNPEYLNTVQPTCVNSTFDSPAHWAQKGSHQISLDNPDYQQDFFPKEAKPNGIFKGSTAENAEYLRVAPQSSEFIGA
The target of assay [3] is T1, HDAC6 (Homo sapiens, UniProt Q9UBN7).
T1 construct: purchased BPS Bioscience 50006
T1 sequence (Q9UBN7 1-1215): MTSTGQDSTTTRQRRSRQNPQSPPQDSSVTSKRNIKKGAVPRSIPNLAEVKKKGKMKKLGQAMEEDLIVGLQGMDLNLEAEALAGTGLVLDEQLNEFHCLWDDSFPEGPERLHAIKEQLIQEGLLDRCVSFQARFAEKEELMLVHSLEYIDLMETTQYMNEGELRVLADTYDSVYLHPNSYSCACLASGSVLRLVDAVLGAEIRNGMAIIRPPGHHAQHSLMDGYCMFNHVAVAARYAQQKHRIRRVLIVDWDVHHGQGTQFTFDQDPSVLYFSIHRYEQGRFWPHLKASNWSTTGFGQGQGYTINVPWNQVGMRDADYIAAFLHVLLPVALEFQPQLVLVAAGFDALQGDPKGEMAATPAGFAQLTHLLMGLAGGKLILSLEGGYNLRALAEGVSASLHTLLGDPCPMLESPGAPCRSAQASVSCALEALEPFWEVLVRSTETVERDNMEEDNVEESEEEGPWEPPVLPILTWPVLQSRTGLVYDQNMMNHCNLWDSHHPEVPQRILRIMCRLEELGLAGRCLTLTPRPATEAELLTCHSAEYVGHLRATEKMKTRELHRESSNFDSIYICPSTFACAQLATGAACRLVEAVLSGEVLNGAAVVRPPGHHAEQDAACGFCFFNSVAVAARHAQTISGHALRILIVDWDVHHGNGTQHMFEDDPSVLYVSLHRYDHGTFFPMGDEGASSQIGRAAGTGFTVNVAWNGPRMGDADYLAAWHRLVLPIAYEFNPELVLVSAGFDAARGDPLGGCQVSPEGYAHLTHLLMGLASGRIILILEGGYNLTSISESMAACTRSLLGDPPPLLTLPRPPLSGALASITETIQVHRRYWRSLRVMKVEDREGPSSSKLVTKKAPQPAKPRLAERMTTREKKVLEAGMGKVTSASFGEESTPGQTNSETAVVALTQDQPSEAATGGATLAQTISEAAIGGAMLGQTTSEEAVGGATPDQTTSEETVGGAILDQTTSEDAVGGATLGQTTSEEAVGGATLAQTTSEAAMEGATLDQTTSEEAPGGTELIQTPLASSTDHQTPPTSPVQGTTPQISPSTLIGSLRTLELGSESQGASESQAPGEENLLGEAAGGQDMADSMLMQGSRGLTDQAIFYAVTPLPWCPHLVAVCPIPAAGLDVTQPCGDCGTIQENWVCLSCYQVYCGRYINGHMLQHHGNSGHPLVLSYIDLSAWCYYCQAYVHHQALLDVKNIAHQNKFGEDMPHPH
Particulars: Figure 2; cited from earlier work.

The test system of assay [4] is VEGFR2. Particulars: cited from earlier work.
The target in assay [5] is T1, HDAC6. The assay is described as follows: In vitro HDAC6 inhibitory assay (BPS Bioscience, fluorogenic). As to conditions: read-out: % Inhibition HDAC6. Type of assay: biochemical. As to the method: (1 picture or pasted object on this page, not shown here)
HDAC activity assays were performed in duplicates at each concentration. The

Assay [6] relates to Hela nuclear extracts. The assay is described as follows: Hela nuclear extract HDAC inhibitor assay (BPS Bioscience). Type of assay: biochemical. The protocol:
The purpose of the study is to determine the effects of twenty compounds from Misr International University on the enzymatic activities of hela nuclear extracts using an in vitro […]
7a Solution 10mM DMSO 10 10 % DMSO in
7b Solution 10mM DMSO 10 10 % DMSO in
7d Solution 10mM DMSO 10 10 % DMSO in
2.3 Experimental Conditions
2.3.1 Enzymes and Substrates
Assay Catalog # Substrate
Hela Nuclear Exctract 50053 10 µM HDAC Substrate 3
For the hela nuclear extracts, hela cells were grown to 90 % confluency. Hela nuclear extracts were prepared from the Nuclear Extraction Kit from abcam (Catalog # ab113474). The final total protein concentration was calculated to be 2.4 µg/µl. From this, the hela nuclear extracts was diluted 20-fold in HDAC assay buffer and 5 µl of the dilution was added to a 50 µl reaction.
The compounds are dissolved in DMSO. A series of dilutions of the compounds were prepared with 10% DMSO in HDAC assay buffer and 5 µl of the dilution was added to a 50 µl reaction so that the final concentration of DMSO is 1 % in all of […]
The enzymatic reactions for the hela nuclear extract were conducted in duplicate at 37 °C for 60 minutes in a 50 µl mixture containing HDAC assay buffer, 5 µg BSA, an HDAC substrate (see 2.3.1), hela nuclear extract, and a test compound (see 2.2).
After enzymatic reactions, 50μl of 2 x HDAC Developer was added to each well for the hela nuclear extract and the plate was incubated at room temperature for an additional 15 […]
Fluorescence intensity was measured at an excitation of 360 nm and an emission of 460 nm using a Tecan Infinite M1000 microplate reader.
Hela nuclear extract activity assays were performed in duplicates at each concentration.
The fluorescent intensity data were analyzed using the computer software, Graphpad Prism. In the absence of the compound, the fluorescent intensity (Ft) in each data set was defined as 100% activity. In the absence of hela nuclear extract, the fluorescent intensity (Fb) in each data set was defined as 0% activity. The percent activity in the presence of each compound was calculated according to the following equation: %activity = (F-Fb)/(Ft-Fb), where F= the fluorescent intensity in the presence of the compound.
The values of percentage activity were plotted on a bar graph.

The subject of assay [7] is HER2. As to conditions: Figure 2; cited from earlier work.
Where [8] appears, read: Figure 3, read-out: VEGFR2 IC50.

As for `O=C(CCCCCCn1cc(-c2ccc3ncnc(Nc4ccc(Br)cc4F)c3c2)nn1)NO` [compound C], the IC50 (as a rule, the concentration at which inhibition is half-maximal) in assay [1] was 3.2 nM; in assay [2] (Figure 2), 4.4 nM; in assay [3] it was 6 nM.

For the compound `COc1cc2ncnc(Nc3ccc(Br)cc3)c2cc1OCCCCCCC(=O)NO` [compound B], the IC50 in assay [1] was 2.2 nM; in assay [4] (Figure 2, read-out: VEGFR2 IC50) it was 74 nM.

Consider `O=C(Nc1cccc(Br)c1)Nc1ccc(Oc2ncnc3sc4c(c23)CCCCC4)cc1Cl` [Compound E], for which the values for the IC50 in assay [2] (Figure 3) and in assay [4] (setting [8]) were 1260 nM and 15 nM, respectively.

For `CC(C=CC(=O)NO)=CC(C)C(=O)c1ccc(N(C)C)cc1` (stereo not shown) [TSA, reference compound], in assay [5], the inhibition (as a rule, the share of the control response that was lost under treatment) at 0.0005 µM was 23%. For the same compound, the inhibition at 0.005 µM in assay [5] stood at 73%. The inhibition at 0.05 µM in assay [5] worked out at 95%. The results for the “% Inhibition Hela Nuclear Extracts” value in assay [6] (0.0003 µM (printed 0.0003 M)), in assay [6] (0.003 µM (printed 0.003 M)) and in assay [6] (0.03 µM (printed 0.03 M)) were 7%, 46% and 88%, respectively.

As to `Clc1ccc(Oc2ncnc3sc4c(c23)CCCCC4)cc1` [Compound D], the half-maximal inhibitory concentration (IC50) in assay [4] (setting [8]) is 340 nM.

On to `C#Cc1cccc(Nc2ncnc3cc(OC)c(OCCCCCCC(=O)NO)cc23)c1` [CUDC-101, 7-(4-(3-ethynylphenylamino)-7-methoxyquinazolin-6-yloxy)-N-hydroxyheptanamide], for which the IC50 in assay [7] is 15 nM.

For Vandetanib, in assay [4] (read-out: IC50 VEGFR-2), the IC50 was 40 nM.
